Assay results as given in patent publication US4299915A (priority 1977, dated 1981).
Where two headings read alike, the source gives them in different places.

What was measured:
[1] = tested on: 5-methyltryptophan-sensitive bacteria; details: cited from earlier work
[2] = tested on: S. typhimurium strain TM35
[3] = tested on: mixed population of 8AG^S and 8AG^R cells; test: Reconstruction experiment 2: mixed 8AG^R/8AG^S population exposed to the mutation assay protocol; details: 2 hr
[4] = tested on: 8AG^R mutants; test: Uptake of tagged 8AG by 8AG^R mutant clones; type: cell-based, S. typhimurium
[5] = tested on: wild-type control; type: cell-based, S. typhimurium
[6] = tested on: 8AG^R clones; type: cell-based, S. typhimurium; details: for plating efficiency, 8AG w/cells: 50 ug/ml 8AG plus 10^6 8AG^S cells; for plating efficiency, 8AG: 50 ug/ml 8AG, control 1.00
[7] = tested on: 8AG^R mutant fraction of S. typhimurium cultures

Cc1ccc2[nH]cc(C[C@H](N)C(=O)O)c2c1 [5-methyltryptophan]
growth inhibition of 5-methyltryptophan-sensitive bacteria [1]: not completely inhibited | effect of varying the concentration on observed mutant fraction ([1]; varying concentration): changes the observed mutant fraction

O=C1CCO1 [βPL, β-propiolactone]
induced mutant fractions (M.F.) [2]: significantly higher than background levels | ratio of 8AG^R cells to 8AG^S cells in the treated population ([3]; 0, 0.16, and 1.60 mM): did not suffer significantly | survival of the mixed population ([3]; high concentration (0, 0.16 and 1.60 mM tested)): killed a significant portion of the mixed population

Nc1nc2nn[nH]c2c(=O)[nH]1 [8AG, 8-azaguanine]
activity (8AG incorporation), mutants with no detectable activity ([4]; 9 of the mutants tested): < 0.04% | 8AG Inc. (% wild-type) ([4]; mutant 9AA-1 (induced by 9AA)): < 0.04 % wild-type | 8AG Inc. (% wild-type) ([4]; mutant 9AA-2 (induced by 9AA)): < 0.04 % wild-type | 8AG Inc. (% wild-type) ([4]; mutant 9AA-3 (induced by 9AA)): < 0.04 % wild-type | 8AG Inc. (% wild-type) ([4]; mutant 9AA-4 (induced by 9AA)): < 0.04 % wild-type | 8AG Inc. (% wild-type) ([4]; mutant 9AA-5 (induced by 9AA)): < 0.04 % wild-type | 8AG Inc. (% wild-type) ([4]; mutant BPL-1 (induced by βPL)): 0.1 % wild-type | 8AG Inc. (% wild-type) ([4]; mutant BPL-2 (induced by βPL)): 2.5 % wild-type | 8AG Inc. (% wild-type) ([4]; mutant BPL-3 (induced by βPL)): 7.1 % wild-type | 8AG Inc. (% wild-type) ([4]; mutant BPL-4 (induced by βPL)): 1.8 % wild-type | 8AG Inc. (% wild-type) ([4]; mutant BPL-5 (induced by βPL)): 1.2 % wild-type | 8AG Inc. (% wild-type) ([4]; mutant ICR-1 (induced by ICR191)): < 0.04 % wild-type | 8AG Inc. (% wild-type) ([4]; mutant ICR-2 (induced by ICR191)): < 0.04 % wild-type | 8AG Inc. (% wild-type) ([4]; mutant ICR-3 (induced by ICR191)): 0.80 % wild-type | 8AG Inc. (% wild-type) ([4]; mutant ICR-4 (induced by ICR191)): < 0.04 % wild-type | 8AG Inc. (% wild-type) ([4]; mutant ICR-5 (induced by ICR191)): 11.8 % wild-type | 8AG Inc. (% wild-type) ([4]; mutant NG-1 (induced by MNNG)): 0.04 % wild-type | 8AG Inc. (% wild-type) ([4]; mutant NG-2 (induced by MNNG)): 5.1 % wild-type | 8AG Inc. (% wild-type) ([4]; mutant NG-3 (induced by MNNG)): 2.2 % wild-type | 8AG Inc. (% wild-type) ([4]; mutant NG-4 (induced by MNNG)): 4.9 % wild-type | 8AG Inc. (% wild-type) ([4]; mutant NG-5 (induced by MNNG)): 3.2 % wild-type | 8AG Inc. (% wild-type) ([4]; mutant S-1 (spontaneous)): 2.4 % wild-type | 8AG Inc. (% wild-type) ([4]; mutant S-2 (spontaneous)): 1.7 % wild-type | 8AG Inc. (% wild-type) ([4]; mutant S-3 (spontaneous)): 18.3 % wild-type | 8AG Inc. (% wild-type) ([4]; mutant S-4 (spontaneous)): 5.9 % wild-type | 8AG Inc. (% wild-type) ([4]; mutant S-5 (spontaneous)): 19.5 % wild-type | 8AG incorporation rate of the wild-type control [5]: 5×10^-18 moles/cell-hr | Uptake in the control over time [5]: linear through the 2 hr incubation | effect on plating efficiency, 8AG alone [6]: no effect | effect on plating efficiency, 8AG with 8AG^S cells [6]: did decrease plating efficiency slightly | plating efficiency, 8AG w/cells ([6]; clone S-1): 0.8 ± .07 | plating efficiency, 8AG ([6]; clone S-1): 0.93 ± .05 | plating efficiency, 8AG w/cells ([6]; clone S-2): 1.04 ± .03 | plating efficiency, 8AG ([6]; clone S-2): 1.16 ± .03 | plating efficiency, 8AG w/cells ([6]; clone S-3, * statistically less than control (p < .05)): 0.87 ± .08 | plating efficiency, 8AG ([6]; clone S-3): 0.95 ± .03 | plating efficiency, 8AG w/cells ([6]; clone S-4, * statistically less than control (p < .05)): 0.83 ± .03 | plating efficiency, 8AG ([6]; clone S-4): 0.98 ± .01 | plating efficiency, 8AG w/cells ([6]; clone S-5, * statistically less than control (p < .05)): 0.73 ± .08 | plating efficiency, 8AG ([6]; clone S-5): 0.92 ± .01

COc1ccc2nc3cc(Cl)ccc3c(NCCCNCCCl)c2c1 [ICR-191]
induced mutant fractions (M.F.) [2]: significantly higher than background levels | 8AG^R mutant fraction when cultures are allowed to grow before plating [7]: drops significantly and then stabilizes at a constant level

Nc1c2ccccc2nc2ccccc12 [9AA, 9-aminoacridine]
induced mutant fractions (M.F.) [2]: significantly higher than background levels
